{
  "source": "patent US20220289791A1",
  "about": "“LACTATE DEHYDROGENASE INHIBITOR POLYPEPTIDES FOR USE IN THE TREATMENT OF CANCER” (UNIVERSITÉ CATHOLIQUE DE LOUVAIN, priority 2019, published 2022)",
  "key": {"[1]": {"target": "truncated LDHB (LDHBtr) (Homo sapiens, UniProt P07195)", "sequence (P07195 21-334)": "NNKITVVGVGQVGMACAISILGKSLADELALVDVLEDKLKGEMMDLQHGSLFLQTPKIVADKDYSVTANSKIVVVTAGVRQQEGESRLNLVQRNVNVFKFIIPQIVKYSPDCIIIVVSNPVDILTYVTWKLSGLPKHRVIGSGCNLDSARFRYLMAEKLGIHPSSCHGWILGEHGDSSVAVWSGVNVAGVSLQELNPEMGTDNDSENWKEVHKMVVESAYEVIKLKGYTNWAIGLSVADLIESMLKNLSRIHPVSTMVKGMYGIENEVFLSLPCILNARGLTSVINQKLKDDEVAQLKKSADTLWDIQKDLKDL", "assay": "Microscale thermophoresis (MST), Example 2, macrocycles against truncated LDHB", "assay_type": "binding", "settings": "MST traces at 10 s to 20 s on time", "experimental": "MST measurements were performed on a Nanotemper Monolith NT.115 instrument (NanoTemper Technologies®) using Red-dye-NHS fluorescent labeling. Each LDH sample, purified to homogeneity, was labeled with the Monolith Red-dye-NHS 2nd generation labeling dye (NanoTemper Technologies®), according to the manufacturer's instructions. Measurements were performed in 50 mM sodium phosphate, pH 7.6, and 100 mM NaCl containing 0.05% Tween-20 in premium-treated capillaries (NanoTemper Technologies®). The final concentrations of either labeled protein in the assay were 100 nM. The ligands (NADH and peptides) were titrated in 1:1 dilutions following manufacturer's recommendations. All binding reactions were incubated for 5 min at room temperature after loading into capillaries. Experiments were performed in triplicates using 40% LED power, medium MST power, Laser On time 20 s and Laser Off time 3 s. Peptides were evaluated for their thermophoretic pattern, and Kd's were extracted from raw data at a 10 to 20 s MST on time according to manufacturer's instructions. Regarding interaction of 7 with LDH5, Kd was extracted from the raw fluorescence. A denaturation test was performed accordingly to manufacturer recommendation and excluded any nonspecific spectral interaction between 7 and the red-dye. All Kd's of interacting macrocycles and peptides were obtained in triplicate and corrected by taking into account the molecular weight of the TFA counter ion."}, "[2]": {"target": "human LDH1 (Homo sapiens, UniProt P07195)", "sequence (P07195 whole entry)": "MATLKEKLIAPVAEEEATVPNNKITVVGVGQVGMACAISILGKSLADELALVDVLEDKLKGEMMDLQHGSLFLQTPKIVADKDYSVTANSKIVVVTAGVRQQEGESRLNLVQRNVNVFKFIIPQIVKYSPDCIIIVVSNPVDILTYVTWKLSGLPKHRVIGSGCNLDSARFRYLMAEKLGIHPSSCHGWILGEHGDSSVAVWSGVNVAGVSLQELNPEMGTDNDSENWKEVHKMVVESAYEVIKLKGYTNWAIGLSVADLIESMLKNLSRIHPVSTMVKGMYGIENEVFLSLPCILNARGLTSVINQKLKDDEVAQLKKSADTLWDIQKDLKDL", "assay": "nanoDSF thermal denaturation of LDH1", "assay_type": "binding"}, "[3]": {"target": "T1, human LDH5 (Homo sapiens, UniProt P00338)", "T1 construct": "purchased Abnova", "assay": "nanoDSF thermal denaturation of LDH5", "assay_type": "binding"}, "[4]": {"target": "dimeric model of LDH (Homo sapiens, UniProt P07195)", "sequence (P07195 21-334)": "as the sequence (P07195 21-334) above", "assay": "nanoDSF thermal denaturation of dimeric LDH model", "assay_type": "binding"}, "[5]": {"target": "T2, rabbit LDH5 (rLDH5) (Oryctolagus cuniculus, UniProt P13491)", "T2 construct": "purchased Sigma-Aldrich", "assay": "Denaturation assay: rLDH5 fluorescence recovery after acidic exposure", "assay_type": "biochemical", "settings": "200 nM rLDH5, 50 μM peptide, pH 5 then neutral pH", "experimental": "Rabbit LDHA commercial solution (Sigma-Aldrich®) in an ammonium sulfate suspension (pH-7, 3.2 M) was first diluted to 1 mg/ml in a solution of NaCl 200 mM and then dialyzed at 4° C. 2×2 h against 200 mM NaCl. The stock solution of 1 mg/ml was then diluted to 30 μg/ml (800 nM) in NaCl 20 0 mM to give the assay solution. Assay solution was mixed 1:1 with acetate-chloride buffer (20 mM Acetic acid/Acetate, 180 mM NaCl, 1 mM DTT pH 5) and stored on ice for 30 minutes. Samples were then removed from ice and let warm up for 2 minutes. The acidic solution was then diluted 1:1 with a 250 mM phosphate buffer (pH 7.6) containing or not the inhibitory peptide to yield a 7.5 μg/ml (200 nM) final concentration of re-associating LDHA. Samples of the resulting solutions were then subjected to kinetic experiments of the recovery of intrinsic fluorescence (Exc=286 nm, Em=350 nm, 10′, rt).\nAn experiment was thus designed to follow the recovery of LDH tetramers after a dissociation step initiated by acidic conditions. […] Monitoring of the rLDH5 tetrameric state was performed by following its intrinsic tryptophan fluorescence: 6 tryptophan residues can be found in each rLDHA monomer, three of them being located at the dimer-dimer interface. As the tryptophan quantum yield decreases in a polar environment, dimeric LDHs show very weak tryptophan fluorescence compared to the tetrameric form. […] Such decay can be compared to the difference in tryptophan fluorescence between tetrameric LDH1 and dimeric LDHBtr."}, "[6]": {"target": "LDHBtr (Homo sapiens, UniProt P07195)", "sequence (P07195 21-334)": "as above", "assay": "Intrinsic fluorescence assay on dimeric LDHBtr", "assay_type": "biochemical", "experimental": "Full tryptophan fluorescence spectra were recorded using an excitation wavelength of 286 nm and recording the emission spectra from 320 nm to 400 nm at room temperature. Raw fluorescence of every experiments was further subtracted to a corresponding control experiment without the protein. Experiments were performed in a 50 mM sodium phosphate and 100 mM NaCl, pH 7.6, buffer. For LDH dissociation into subunits, increasing amounts of guanidinium/HCl were put in contact with the studied proteins (1.3 μM), and fluorescence spectra were recorded afterwards. Guanidinium/HCl concentrations ranged from 0.3 M to 2 M."}, "[7]": {"system": "Mia Paca-2 human pancreatic cancer cells", "assay": "Seahorse OCR and ECAR measurement", "assay_type": "cell-based", "settings": "200 μM, 4 h incubation", "experimental": "Macrocyclic peptide MP7 (SEQ ID NO: 61) was evaluated at 200 μM against Mia Paca-2 human pancreatic cancer cells (ATCC®).\nThe oxygen consumption rate (OCR) and extracellular acidification rate (ECAR) were measured on a Seahorse XF96 analyzer (Agilent®) with a combination of XF cell mito stress kit (Agilent®) and 2-deoxy-D-glucose (2DG; Sigma Aldrich®). Seahorse experiments were performed using 10,000 cells/well in DMEM medium with 10 mmol/L of D-glucose and 1 mmol/L of L-Glutamine Cells were incubated for 1 h in a CO2-free incubator before analysis. […] Oximetry before the addition of any agent provided the basal respiration rate of the cells; ATP-linked reparation was determined after the addition of 1 μM of oligomycin and the maximal respiration rate of the cells after the addition of 1 μM of FCCP. All data were normalized to cell numbers measured right before oximetry using a SpectraMax miniMax 300 imaging cytometer (Molecular Devices®). Macrocyclic peptide MP7 in PBS or PBS alone (control experiment) were added directly into the medium and incubated with Mia Paca-2 cells during 4 h before conducting Seahorse experiments on the medium composed of the Mia Paca-2 cells with or without macrocyclic peptide MP7."}},
  "note": "*1 amine or outer side, *2 acyl side, *3 side chain or, on linkers, in order; H or OH if unused. Where a SMILES comes first, the peptide text is derived from it. Bridges are numbered along the chain shown (N, C = ends). C6F4(1,4-diyl) = Fc1c(F)c([*:2])c(F)c(F)c1[*:1]",
  "data": [
    {"smiles": "CC[C@H](C)[C@H](NC(=O)[C@H](CC(C)C)NC(=O)[C@H](CCCCN)NC(=O)[C@@H]1CSc2c(F)c(F)c(c(F)c2F)SC[C@H](N)C(=O)N[C@@H]([C@@H](C)O)C(=O)N[C@@H](CC(C)C)C(=O)N[C@@H](CCCCN)C(=O)N1)C(N)=O", "note": "[MP7, CTLKCKLI] (H-CTLKCKLI-NH2; linker 1-5 via C6F4(1,4-diyl); N-terminus assumed)", "values": [
      {"measurement": "Kd", "setting": "[1]", "result": 11, "unit": "µM"},
      {"measurement": "ΔTm at 400 µM", "setting": "[2]; LDH1, MP7 at 400 μM", "result": -1.5, "unit": "°C"},
      {"measurement": "effect on LDH1 stability", "setting": "[2]; nanoDSF", "result": "induced a destabilizing conformational change"},
      {"measurement": "ΔTm at 400 µM", "setting": "[3]; LDH-5 tetramer, MP7 at 400 μM", "result": -5, "unit": "°C"},
      {"measurement": "effect on LDH5 stability", "setting": "[3]; nanoDSF", "result": "induced a destabilizing conformational change"},
      {"measurement": "destabilization of dimeric model of LDH", "setting": "[4]", "result": "did not induce such destabilization"},
      {"measurement": "LDH5 fluorescence recovery after acidification", "setting": "[5]", "result": "significantly interfered"},
      {"measurement": "decay of LDHBtr fluorescence spectrum", "setting": "[6]", "result": "did not induce a comparative decay"},
      {"measurement": "glycolytic flux (ECAR)", "setting": "[7]", "result": "increase"},
      {"measurement": "mitochondrial oxygen consumption rate (OCR)", "setting": "[7]", "result": "strong decrease"}
    ]}
  ]
}
